Assay results taken from patent publication US11926623B2, “Heterocycle derivatives as pesticides” (Bayer Aktiengesellschaft, priority 2018, dated 2024).

Columns and labels:
Type in all cases: in vivo
[1] = system: Spodoptera frugiperda; assay: Spodoptera frugiperda spray test; details: foliar, 168 h, sprayed maize leaf discs, fall armyworm caterpillars, after 7 days, read-out: efficacy
Experimental: Spodoptera frugiperda—Spray Test [table] To produce a suitable active compound preparation, 1 part by weight of active compound is dissolved using the stated parts by weight of solvent and made up with water containing an emulsifier concentration of 1000 ppm until the desired concentration is attained. To produce further test concentrations, the formulation is diluted with emulsifier-containing water. Leaf discs of maize (Zea mays) are sprayed with an active compound formulation of the desired concentration and, after drying, populated with caterpillars of the fall armyworm (Spodoptera frugiperda). After 7 days, the efficacy in % is determined. 100% means that all the caterpillars have been killed; 0% means that no caterpillar has been killed.

[2] = system: Diabrotica balteata; assay: Diabrotica balteata spray test; details: 168 h, 160 μg/well, sprayed germinated wheat grains, beetle larvae, after 7 days, read-out: efficacy
Experimental: Diabrotica balteata—Spray Test [table] To produce a suitable active compound preparation, 1 part by weight of active compound is dissolved using the stated parts by weight of solvent and made up with water containing an emulsifier concentration of 1000 ppm until the desired concentration is attained. To produce further test concentrations, the formulation is diluted with emulsifier-containing water. Pre-swollen wheat grains (Triticum aestivum) are incubated in a multiwell plate filled with agar and a little water for one day (5 seed grains per well). The germinated wheat grains are sprayed with an active compound preparation of the desired concentration. Subsequently, each cavity is infected with 10-20 beetle larvae of Diabrotica balteata. After 7 days, the efficacy in % is determined. 100% means that all wheat plants have grown as in the untreated, uninfected control; 0% means that no wheat plant has grown.

[3] = system: Myzus persicae; assay: Myzus persicae oral test; details: 120 h, mixed population of green peach aphids, after 5 days, read-out: efficacy
Experimental: Myzus persicae—Oral Test [table] To produce a suitable preparation of active compound, 1 part by weight of active compound is dissolved using the specified parts by weight of solvent and made up with water until the desired concentration is attained. 50 μl of the active ingredient formulation are transferred into microtitre plates and made up to a final volume of 200 μl with 150 μl of IPL41 insect medium (33%+15% sugar). Subsequently, the plates are sealed with parafilm, which a mixed population of green peach aphids (Myzus persicae) within a second microtitre plate is able to puncture and imbibe the solution through. After 5 days, the efficacy in % is determined. 100% means that all the aphids have been killed; 0% means that no aphids have been killed.

[4] = system: Myzus persicae; assay: Myzus persicae spray test; details: foliar, 120 h, sprayed Chinese cabbage leaf discs, all stages of the green peach aphid, after 5 days, read-out: efficacy
Experimental: Myzus persicae—Spray Test [table] To produce a suitable active compound preparation, 1 part by weight of active compound is dissolved using the stated parts by weight of solvent and made up with water containing an emulsifier concentration of 1000 ppm until the desired concentration is attained. To produce further test concentrations, the formulation is diluted with emulsifier-containing water. Discs of Chinese cabbage leaves (Brassica pekinensis) infested by all stages of the green peach aphid (Myzus persicae) are sprayed with an active compound formulation of the desired concentration. After 5 days, the efficacy in % is determined. 100% means that all the aphids have been killed; 0% means that no aphids have been killed.

Row | SMILES | pest or weed control at 100 g/ha [1] | pest or weed control at 160 µg/disc, 160 µg/well [2] | pest or weed control at 4 ppm [3] | pest or weed control at 100 g/ha [4]
1 | CCS(=O)(=O)c1c(-c2nc3cc(C(F)(F)C(F)(F)F)cnc3n2C)nc(-c2cnn(-c3ccc(F)cc3)c2)n1C [Example I-17] | 100% | 100% | 100% | 
2 | CCS(=O)(=O)c1c(-c2nc3cc(C(F)(F)C(F)(F)F)cnc3n2C)nc(-c2cccc(C3(C#N)CC3)c2)n1C [Example I-24] | 100% | 100% | 100% | 
3 | CCS(=O)(=O)c1c(-c2nc3cc(C(F)(F)F)cnc3n2C)nc(-c2cccc(C3(C#N)CC3)c2)n1C [Example I-12] | 100% | 100% | 100% | 90%
4 | CCS(=O)(=O)c1c(-c2nc3cc(C(F)(F)C(F)(F)F)cnc3n2C)nc(-c2ccc(C3CC3)nc2)n1C [Example I-22] | 100% | 100% | 100% | 90%
5 | CCS(=O)(=O)c1c(-c2nc3cc(C(F)(F)C(F)(F)F)cnc3n2C)nc(-c2ccc(C3(C#N)CC3)cc2)n1C [Example I-15] | 100% | 100% | 100% | 90%
6 | CCS(=O)(=O)c1c(-c2nc3cc(C(F)(F)F)cnc3n2C)nc(C2CC(c3ccccn3)=NO2)n1C (stereo not drawn) [Example I-3] | 100% |  | 100% | 90%
7 | CCS(=O)(=O)c1c(-c2nc3cc(C(F)(F)C(F)(F)F)cnc3n2C)nc(-c2cnn(-c3cccc(C#N)c3)c2)n1C [Example I-19] | 100% | 100% | 100% | 
8 | CCS(=O)(=O)c1c(-c2nc3cc(C(F)(F)C(F)(F)F)cnc3n2C)nc(-c2cnn(-c3cncc(F)c3)c2)n1C [Example I-20] | 100% | 100% | 100% | 100%
9 | CCS(=O)(=O)c1c(-c2nc3cc(C(F)(F)F)cnc3n2C)nc(C2CC(c3cccnc3)=NO2)n1C (stereo not drawn) [Example I-4] |  |  | 100% | 100%
10 | CCS(=O)(=O)c1c(-c2nc3cc(C(F)(F)C(F)(F)F)cnc3n2C)nc(-c2cnn(-c3ccccc3C#N)c2)n1C [Example I-18] | 100% | 80% | 100% | 70%
11 | CCS(=O)(=O)c1c(-c2nc3cc(C(F)(F)C(F)(F)F)cnc3n2C)nc(-n2cc(C#N)c(-c3ccc(F)cc3)c2)n1C [Example I-26] | 100% | 100% | 100% | 
12 | CCS(=O)(=O)c1c(-c2nc3cc(C(F)(F)F)cnc3n2C)nc(-c2ccc(-c3cccs3)s2)n1C [Example I-13] |  | 80% | 100% | 90%
13 | CCS(=O)(=O)c1c(-c2nc3cc(C(F)(F)F)cnc3n2C)nc(C2CC(c3ccc(Cl)cc3)=NO2)n1C (stereo not drawn) [Example I-2] | 100% |  | 100% | 
14 | CCS(=O)(=O)c1c(-c2nc3cc(C(F)(F)C(F)(F)F)cnc3n2C)nc(-c2cnn(C3CC3)c2)n1C [Example I-16] | 100% | 100% | 100% | 90%
15 | CCS(=O)(=O)c1c(-c2nc3cc(C(F)(F)C(F)(F)F)cnc3n2C)nc(-c2cccc(N3CCOCC3)n2)n1C [Example I-23] | 100% | 100% | 100% | 
16 | CCS(=O)(=O)c1c(-c2nc3cc(C(F)(F)C(F)(F)F)cnc3n2C)nc(-n2cc(C#N)c(-c3ccccc3F)c2)n1C [Example I-25] | 100% | 100% |  | 
